Results published in patent US20180256673A1, “METHODS FOR TREATING FUNGAL INFECTIONS” (priority 2015, published 2018).
In brackets after ≈: the same amount, converted by molar mass. Starred links: 1 amine or outer side, 2 acyl side, 3 side chain; linkers in the order of their positions; H or OH if unused. Positions of bridges follow the written chain, without caps; N, C: chain ends. Non-standard residues stand in square brackets, D forms with d. Residues, ends and D or L forms follow the SMILES beside them. *: point of attachment. Orn(4R-OH,5R-OCH2CH2NMe3+) = C[N+](C)(C)CCO[C@@H](N[*:3])[C@H](O)C[C@H](N[*:1])C(=O)[*:2]; hTyr(3S-OH,4S-OH,3'-OSO3H) = N[C@H](C(=O)O)[C@H](O)[C@@H](O)c1ccc(O)c(OS(=O)(=O)O)c1; pTerphenylCO(4''-OnC5H11) = CCCCCOc1ccc(-c2ccc(-c3ccc(C(=O)*)cc3)cc2)cc1; Orn(4R-OH,5R-OH) = O=C([C@H](C[C@@H](O)[C@@H](O)N[*:3])N[*:1])[*:2]; hTyr(3S-OH,4S-OH) = N[C@H](C(=O)O)[C@H](O)[C@@H](O)c1ccc(O)cc1; Pro(3S-OH,4S-Me) = C[C@H]1CN[C@H](C(=O)O)[C@H]1O; X1 = CCCCCOc1ccc(-c2cc(-c3ccc(C(=O)*)cc3)no2)cc1; Gln(3R-OH) = NC(=O)C[C@@H](O)[C@H](N)C(=O)O; Hyp = O=C(O)[C@@H]1C[C@@H](O)CN1

Legend:
[1] = tested on: 1,3-β-D-glucan synthase from C. glabrata; experiment: Glucan synthase (GS) inhibition assay; settings: for IC50: DPL50, WT; for GS activity after treatment with a high dose: F659del mutant GS, 10,000 ng/mL
[2] = tested on: Candida albicans (Strain R303); experiment: MIC of dose-fractionation strain
[3] = Pharmacokinetic study in healthy ICR mice, single IP dose; settings: 1 to 16 mg/kg IP
Protocol: Pharmacokinetic Study. […] The following doses, at three mice per dose, were studied: 1, 4, and 16 mg/kg.

C. albicans = experiment: Antifungal susceptibility testing (CLSI M27-S4), WT and echinocandin-resistant isolates; settings: for % of ER isolates with an MIC of ≤0.5 mg/L: C. albicans ER isolates; for MIC median (range): 24 hr
Protocol: (§1) Antifungal susceptibility testing. Antifungal susceptibility testing was performed in triplicate for a collection of 95 Candida strains (20 C. albicans, 20 C. glabrata, 2 C. dubliniensis, 15 C. krusei, 19 C. parapsilosis, and 19 C. tropicalis) that included 30 isolates showing an echinocandin resistance (ER) phenotype (caspofungin-resistant) in accordance with the guidelines described in the Clinical and Laboratory Standards Institute (CLSI) document M27-S4. […] Stock solutions of the drugs were kept at −86° C.

Murine protein binding = format: in vitro ADME; settings: mouse, plasma
C. albicans ATCC 44858 = experiment: MIC against C. albicans ATCC 44858 at pH 4; format: cell-based; settings: Candida albicans, ATCC44858, pH 4
C. glabrata [4] = experiment: Antifungal susceptibility testing (CLSI M27-S4), WT and echinocandin-resistant isolates; settings: for % of ER isolates with an MIC: C. glabrata ER isolates (n=11); for MIC median (range): 24 hr
Protocol: as §1

[5] = tested on: azole-resistant Candida albicans (R357); experiment: Disseminated infection model in neutropenic ICR mice, kidney fungal counts (Example 10, Tables 22-23); format: in vivo; settings: for antimicrobial effect versus vehicle (one-way ANOVA, Dunnett's test): 48 and 72 hr after infection, Compound 1 3, 10, 30 mg/kg IP, amphotericin B 1 and 3 mg/kg IV, fluconazole 20 mg/kg PO; for reduction in colony counts compared to the vehicle control group: kidney, 20 mg/kg PO once
C. krusei = experiment: Antifungal susceptibility testing (CLSI M27-S4), WT and echinocandin-resistant isolates; settings: 24 hr
Protocol: as §1

[6] = tested on: Aspergillus fumigatus (ATCC 13073); experiment: Neutropenic mouse model of disseminated aspergillosis, survival; format: in vivo; settings: one dose; Compound 1 2 mg/kg IV or IP, AMB 2 mg/kg IP; 10 days; P<0.05
[7] = Pharmacokinetic-pharmacodynamic analyses, PK model free-drug plasma exposures; design: species or system mouse
Protocol: Pharmacokinetic-Pharmacodynamic Analyses. Using the data collected from the PK study, a PK model was developed in S-ADAPT. Using the developed PK model, concentration-time profiles and AUC0-168h values were computed for each dosing regimen administered in the dose-fractionation study. […] Relationships between the change in logio CFU from start of therapy and AUC0-168h were explored.

[8] = tested on: C. albicans ATCC 90028 and DPL22; experiment: MIC of strains used in mouse study (Table 3); settings: Candida albicans
C. glabrata [9] = experiment: Mutant prevention concentration (MPC) determination; format: cell-based, Candida glabrata; settings: wild-type isolates; 24 hr, ~1×10^7 CFU/mL
[10] = Solubility of test articles in vehicle, visual observation (Table 22); format: physicochemical; settings: visual observation
Protocol: Test Articles. […] Amphotericin B and fluconazole were in powder form. Amphotericin B was dissolved in 0.9% NaCl. Fluconazole was dissolved in water (WFI: water for injection).

[11] = Phase 1 dose-escalation trials, pharmacokinetics after IV infusion; format: in vivo, human
Protocol: PK was assessed using plasma and urine samples collected over 21 days. Safety and tolerability were assessed by adverse events (AEs), vital signs, physical exams, electrocardiograms (ECGs), and safety laboratory values up to 21 days after dosing.

C. tropicalis = experiment: Antifungal susceptibility testing (CLSI M27-S4), WT and echinocandin-resistant isolates; settings: 24 hr
Protocol: as §1

[12] = tested on: Candida albicans (Strain R303); experiment: Dose-fractionation study in neutropenic ICR mice, kidney fungal burden (Table 24); settings: 2 mg/kg as a single dose IP; 168 hours
[13] = Modeling of total plasma concentrations versus MPC; settings: IV administration of 50 mg; calculated by modeling of pharmacokinetic data
[14] = tested on: C. glabrata CG01, ATCC 200918, MMX 7070; experiment: Time-kill assay in vagina-simulative medium pH 4.0 (Table 17); format: cell-based, Candida glabrata
[15] = tested on: C. tropicalis CTO2, MMX 7255, MMX 7525; experiment: Time-kill assay in vagina-simulative medium pH 4.0 (Table 18); format: cell-based, Candida tropicalis
[16] = tested on: C. albicans ATCC 44858, DPL001, R357; experiment: Time-kill assay in vagina-simulative medium pH 4.0 (Table 16); format: cell-based, Candida albicans
[17] = tested on: C. parapsilosis CP02, CP01, MMX 7370; experiment: Time-kill assay in vagina-simulative medium pH 4.0 (Table 19); format: cell-based, Candida parapsilosis
[18] = tested on: 1,3-β-D-glucan synthase from C. albicans; experiment: Glucan synthase (GS) inhibition assay
[19] = ATCC90028, ATCC 90028, Fks1p WT, Fks2p WT
[20] = ATCC90028, DPL22, Fks1p S645P/S
[21] = IV infusion, healthy human subjects

SMILES: CCCCCOc1ccc(-c2ccc(-c3ccc(C(=O)N[C@H]4C[C@@H](O)[C@@H](OCC[N+](C)(C)C)NC(=O)[C@@H]5[C@@H](O)[C@@H](C)CN5C(=O)[C@H]([C@@H](C)O)NC(=O)[C@H]([C@H](O)[C@@H](O)c5ccc(O)cc5)NC(=O)[C@@H]5C[C@@H](O)CN5C(=O)[C@H]([C@@H](C)O)NC4=O)cc3)cc2)cc1 [Compound 1] ({pTerphenylCO(4''-OnC5H11)}-[Orn(4R-OH,5R-OCH2CH2NMe3+)]T[Hyp][hTyr(3S-OH,4S-OH)]T[Pro(3S-OH,4S-Me)]; lactam 1-C)
- IC50 [1]: 0.00257 µg/mL
- GS activity after treatment with a high dose [1]: did not exhibit significant reductions in activity
- MIC [2]: 0.125 µg/mL
- PK linearity over the dose range [3]: linear PK
- % of ER isolates with an MIC of ≤0.5 mg/L (C. albicans): 60%
- MIC median (range) (C. albicans; ER (10 isolates)): 0.50 (0.06-2) mg/L
- MIC median (range) (C. albicans; WT (10 isolates)): <0.03 (<0.03)^ mg/L
- fraction unbound (Murine protein binding): 0.009
- MIC (C. albicans ATCC 44858): 0.25 µg/mL
- % of ER isolates with an MIC (C. glabrata [4]): 18%
- MIC median (range) (C. glabrata [4]; ER (11 isolates)): 1.00 (0.12-4) mg/L
- MIC median (range) (C. glabrata [4]; WT (9 isolates)): 0.06 (0.03-0.12) mg/L
- reduction in fungal counts ([5]; 3, 10, and 30 mg/kg IP once, 48 and 72 hr time points): two log reduction
- antimicrobial effect versus vehicle (one-way ANOVA, Dunnett's test) [5]: Significant antimicrobial effects
- MIC median (range) (C. krusei; ER (4 isolates)): 0.50 (<0.03-4) mg/L
- MIC median (range) (C. krusei; WT (11 isolates)): 0.03 (<0.03-0.06) mg/L
- survival versus vehicle [6]: significantly longer survival than vehicle
- Free-drug plasma AUC0-24 ([7]; 2 mg/kg as a single dose): 65.4 ng·h/mL
- time free-drug plasma concentrations of single dose remain above those of the daily regimen ([7]; 2 mg/kg total dose): 48 h
- time free-drug plasma concentrations of single dose remain above those of the twice weekly regimen ([7]; 2 mg/kg total dose): 84 h
- Free-drug plasma AUC0-24 ([7]; 2 mg/kg total, daily regimen): 9.48 ng·h/mL
- Free-drug plasma AUC0-24 ([7]; 2 mg/kg total, twice weekly regimen): 30.3 ng·h/mL
- MIC [8, 19]: < 0.03 µg/mL
- MIC [8, 20]: 0.5 µg/mL
- MPC (C. glabrata [9]): 16 µg/mL
- Solubility ([10]; vehicle 10% DMSO/1% Tween 20 in 0.9% NaCl, formulation 0.3, 1 and 3 mg/mL): S
- plasma exposures versus dose ([11]; 50-400 mg IV): dose-proportional plasma exposures
- apparent clearance [11, 21]: < 0.3 L/h
- urinary excretion [11, 21]: < 1%
- half-life ([11]; plasma, IV infusion, healthy human subjects, read-out: half-life (t1/2)): > 80 h
- MIC median (range) (C. tropicalis; ER (4 isolates)): 2.00 (0.5-2) mg/L
- MIC median (range) (C. tropicalis; WT (15 isolates)): 0.03 (0.03)^ mg/L
- log10 CFU reduction from baseline [12]: greater than 2 log10 CFU
- total plasma concentration generated [13]: > 16 µg/mL

SMILES: OC(Cn1cncn1)(Cn1cncn1)c1ccc(F)cc1F [FLU, fluconazole]
- Susceptibility to FLU (S/R) ([14]; C. glabrata ATCC 200918): R
- Susceptibility to FLU (S/R) ([14]; C. glabrata CG01): S
- Susceptibility to FLU (S/R) ([14]; C. glabrata MMX 7070): R
- Susceptibility to FLU (S/R) ([15]; C. tropicalis CT02): S
- Susceptibility to FLU (S/R) ([15]; C. tropicalis MMX 7255): R
- Susceptibility to FLU (S/R) ([15]; C. tropicalis MMX 7525): R
- antimicrobial effect versus vehicle (one-way ANOVA, Dunnett's test) [5]: not significant
- reduction in colony counts compared to the vehicle control group ([5]; 48 hr after infection): 51%
- reduction in colony counts compared to the vehicle control group ([5]; 72 hr after infection): 84%
- Solubility ([10]; vehicle WFI, formulation 2 mg/mL): S
- Susceptibility to FLU (S/R) ([16]; C. albicans ATCC 44858): S
- Susceptibility to FLU (S/R) ([16]; C. albicans DPL001): R
- Susceptibility to FLU (S/R) ([16]; C. albicans R357): R
- Susceptibility to FLU (S/R) ([17]; C. parapsilosis CP01): R
- Susceptibility to FLU (S/R) ([17]; C. parapsilosis CP02): S
- Susceptibility to FLU (S/R) ([17]; C. parapsilosis MMX 7370): R

SMILES: CCCCCOc1ccc(-c2cc(-c3ccc(C(=O)N[C@H]4C[C@@H](O)[C@@H](O)NC(=O)[C@@H]5[C@@H](O)[C@@H](C)CN5C(=O)[C@H]([C@H](O)CC(N)=O)NC(=O)[C@H]([C@H](O)[C@@H](O)c5ccc(O)c(OS(=O)(=O)O)c5)NC(=O)[C@@H]5C[C@@H](O)CN5C(=O)[C@H]([C@@H](C)O)NC4=O)cc3)no2)cc1 [MCF, micafungin] (X1-[Orn(4R-OH,5R-OH)]T[Hyp][hTyr(3S-OH,4S-OH,3'-OSO3H)][Gln(3R-OH)][Pro(3S-OH,4S-Me)]; lactam 1-C)
- IC50 [1]: 0.000447 µg/mL (≈ 0.352 nM)
- GS activity after treatment with a high dose [1]: did not exhibit significant reductions in activity
- % of ER isolates with an MIC of ≤0.5 mg/L (C. albicans): 40%
- MIC median (range) (C. albicans; ER (10 isolates)): 0.50 (0.03-4) mg/L
- MIC median (range) (C. albicans; WT (10 isolates)): <0.03 (<0.03)^ mg/L
- fold increase in IC50 compared to the WT ([18]; F641S mutant): 100 fold
- fold increase in IC50 compared to the WT ([18]; S645P mutant): 144 fold
- % of ER isolates with an MIC (C. glabrata [4]): 63%
- MIC median (range) (C. glabrata [4]; ER (11 isolates)): 0.50 (0.06-4) mg/L
- MIC median (range) (C. glabrata [4]; WT (9 isolates)): <0.03 (<0.03)^ mg/L
- MIC median (range) (C. krusei; ER (4 isolates)): 1.00 (0.03-8) mg/L
- MIC median (range) (C. krusei; WT (11 isolates)): 0.12 (0.03-0.25) mg/L
- MIC [8, 19]: < 0.03 µg/mL
- MIC [8, 20]: 0.5 µg/mL
- MPC (C. glabrata [9]): 16 µg/mL
- MIC median (range) (C. tropicalis; ER (4 isolates)): 2.00 (1-4) mg/L
- MIC median (range) (C. tropicalis; WT (15 isolates)): 0.03 (0.03)^ mg/L
